Data on 13 compounds can be found in patent US11028078B2 (The Johns Hopkins University, priority 2011, dated 2021).

Data set [1] relates to HUVEC. In words: HUVEC proliferation assay ([3H]thymidine incorporation). The class given is cell-based, human. As to conditions: HUVEC; for IC50: Homo sapiens, 3H thymidine incorporation, in μM, read-out: Proliferation IC50; for Proliferation (IC50/IC50 Itra): Table 7, relative to itraconazole. Put shortly:
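Pooled HUVEC at passage eight or lower, grown in EGM-2 medium; proliferation measured by [3H]thymidine incorporation as in an earlier published protocol.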
For orientation: Dividing cells build labelled thymidine or BrdU into new DNA.

Data set [2] addresses T1, CYP3A4 (Homo sapiens, UniProt P08684).
T1 construct: purchased ThermoFisher P2857; host or cells: baculosomes
In words: CYP3A4 enzyme assay (Vivid CYP3A4 Green Screening Kit). The class given is in vitro ADME. As to conditions: for CYP3A4 Inhibition (compared to intracozanole at 1 μm): % enzyme inhibition at 1 μM drug / % enzyme inhibition at 1 μM itraconazole. The protocol:
And CYP3A4 inhibition was initially determined using a cell-free fluorescence-based assay at a final concentration of 1 μM (Table 7).
CYP3A4 enzyme assay. CYP3A4 enzyme activity was tested using Vivid™ CYP3A4 Green Screening Kit (ThermoFisher, #P2857) using the manufacturer's protocol. Briefly, CYP3A4 baculosomes and drugs were incubated 10 min at 37° C. Then Vivid® Substrates were added and the fluorescence (ex/em:485/520) were read every 1 min for 60 minute.

T1 sequence (P08684 whole entry): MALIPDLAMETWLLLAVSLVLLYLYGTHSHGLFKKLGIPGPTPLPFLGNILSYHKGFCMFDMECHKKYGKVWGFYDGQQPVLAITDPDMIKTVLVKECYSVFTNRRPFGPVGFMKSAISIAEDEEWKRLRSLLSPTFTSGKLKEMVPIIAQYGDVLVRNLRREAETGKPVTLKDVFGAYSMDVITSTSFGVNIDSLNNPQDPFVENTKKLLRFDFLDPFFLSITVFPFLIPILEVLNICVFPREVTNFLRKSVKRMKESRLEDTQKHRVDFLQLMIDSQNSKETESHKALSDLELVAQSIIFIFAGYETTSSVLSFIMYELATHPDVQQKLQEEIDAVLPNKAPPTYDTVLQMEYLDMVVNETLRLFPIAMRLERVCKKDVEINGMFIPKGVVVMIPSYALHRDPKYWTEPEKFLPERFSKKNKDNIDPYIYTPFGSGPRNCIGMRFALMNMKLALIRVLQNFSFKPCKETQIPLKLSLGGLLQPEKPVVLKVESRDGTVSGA

`CCC(C)n1ncn(-c2ccc(N3CCN(c4ccc(OC[C@@H]5CO[C@@](CN6CCNCC6)(c6ccc(Cl)cc6Cl)O5)cc4)CC3)cc2)c1=O` (stereo partly drawn) [Compound 266, 1-(sec-butyl)-4-(4-(4-(4-(((2S,4R)-2-(2,4-dichlorophenyl)-2-(piperazin-1-ylmethyl)-1,3-dioxolan-4-yl)methoxy)phenyl)piperazin-1-yl)phenyl)-1H-1,2,4-triazol-5(4H)-one]: the IC50 in data set [1] came out at 0.608 µM. The “CYP3A4 Inhibition (compared to intracozanole at 1 μm)” value in data set [2] turned out to be 1.09.

For `CCC(C)n1ncn(-c2ccc(N3CCN(c4ccc(OC[C@@H]5CO[C@@](CN6CCN(C)CC6)(c6ccc(Cl)cc6Cl)O5)cc4)CC3)cc2)c1=O` (stereo partly drawn) [Compound 265, 1-(sec-butyl)-4-(4-(4-(4-(((2S,4R)-2-(2,4-dichlorophenyl)-2-((4-methylpiperazin-1-yl)methyl)-1,3-dioxolan-4-yl)methoxy)phenyl)piperazin-1-yl)phenyl)-1H-1,2,4-triazol-5(4H)-one], the IC50 in data set [1] came out at 0.396 µM. In data set [2], the “CYP3A4 Inhibition (compared to intracozanole at 1 μm)” value is 0.21.

As to `CCC(C)n1ncn(-c2ccc(N3CCN(c4ccc(OC[C@@H]5CO[C@@](CN6CCOCC6)(c6ccc(Cl)cc6Cl)O5)cc4)CC3)cc2)c1=O` (stereo partly drawn) [Compound 263, 1-(sec-butyl)-4-(4-(4-(4-(((2S,4R)-2-(2,4-dichlorophenyl)-2-(morpholinomethyl)-1,3-dioxolan-4-yl)methoxy)phenyl)piperazin-1-yl)phenyl)-1H-1,2,4-triazol-5(4H)-one], the IC50 in data set [1] was found to be 1.18 µM. The “CYP3A4 Inhibition (compared to intracozanole at 1 μm)” value in data set [2] was found to be 0.20.

Consider `CCC(C)n1ncn(-c2ccc(N3CCN(c4ccc(OC[C@@H]5CO[C@@](Cn6ccnc6)(c6ccc(Cl)cc6Cl)O5)cc4)CC3)cc2)c1=O` (stereo partly drawn) [Compound 233, 4-(4-(4-(4-(((2S,4R)-2-((1H-imidazol-1-yl)methyl)-2-(2,4-dichlorophenyl)-1,3-dioxolan-4-yl)methoxy)phenyl)piperazin-1-yl)phenyl)-1-sec-butyl-1H-1,2,4-triazol-5(4H)-one], for which the IC50 in data set [1] turned out to be 0.085 µM. The “CYP3A4 Inhibition (compared to intracozanole at 1 μm)” value in data set [2] came out at 1.18.

Regarding `CCC(C)n1ncn(-c2ccc(N3CCN(c4ccc(OC[C@@H]5CO[C@@](CC6CCCC6)(c6ccc(Cl)cc6Cl)O5)cc4)CC3)cc2)c1=O` (stereo partly drawn) [Compound 261, 1-sec-butyl-4-(4-(4-(4-(((2R,4R)-2-(cyclopentylmethyl)-2-(2,4-dichlorophenyl)-1,3-dioxolan-4-yl)methoxy)phenyl)piperazin-1-yl)phenyl)-1H-1,2,4-triazol-5(4H)-one], in data set [1], the IC50 came to 0.512 µM. Besides, the “CYP3A4 Inhibition (compared to intracozanole at 1 μm)” value in data set [2] is “No inhibition”.

With `CCc1nccn1C[C@@]1(c2ccc(Cl)cc2Cl)OC[C@@H](COc2ccc(N3CCN(c4ccc(-n5cnn(C(C)CC)c5=O)cc4)CC3)cc2)O1` (stereo partly drawn) [Compound 243, 1-(sec-butyl)-4-(4-(4-(4-(((2S,4R)-2-(2,4-dichlorophenyl)-2-((2-ethyl-1H-imidazol-1-yl)methyl)-1,3-dioxolan-4-yl)methoxy)phenyl)piperazin-1-yl)phenyl)-1H-1,2,4-triazol-5(4H)-one], in data set [1], the IC50 stood at 0.225 µM. The “CYP3A4 Inhibition (compared to intracozanole at 1 μm)” value in data set [2] amounted to 0.08.

On to `CCC(C)n1ncn(-c2ccc(N3CCN(c4ccc(OC[C@@H]5CO[C@@](Cn6cccn6)(c6ccc(Cl)cc6Cl)O5)cc4)CC3)cc2)c1=O` (stereo partly drawn) [Compound 234, 4-(4-(4-(4-(((2S,4R)-2-((1H-pyrazol-1-yl)methyl)-2-(2,4-dichlorophenyl)-1,3-dioxolan-4-yl)methoxy)phenyl)piperazin-1-yl)phenyl)-1-sec-butyl-1H-1,2,4-triazol-5(4H)-one], for which the IC50 in data set [1] came out at 0.307 µM. Also, the “CYP3A4 Inhibition (compared to intracozanole at 1 μm)” value in data set [2] was “No inhibition”.

Regarding `CCC(C)n1ncn(-c2ccc(N3CCN(c4ccc(OC[C@@H]5CO[C@@](CN(C)C)(c6ccc(Cl)cc6Cl)O5)cc4)CC3)cc2)c1=O` (stereo partly drawn) [Compound 264, 1-(sec-butyl)-4-(4-(4-(4-(((2S,4R)-2-(2,4-dichlorophenyl)-2-((dimethylamino)methyl)-1,3-dioxolan-4-yl)methoxy)phenyl)piperazin-1-yl)phenyl)-1H-1,2,4-triazol-5(4H)-one], the IC50 in data set [1] came to 1.4 µM. Further, in data set [2], the “CYP3A4 Inhibition (compared to intracozanole at 1 μm)” value is “No inhibition”.

Turning to `CCC(C)n1ncn(-c2ccc(N3CCN(c4ccc(OC[C@@H]5CO[C@@](Cn6cc(C(F)(F)F)nc6C)(c6ccc(Cl)cc6Cl)O5)cc4)CC3)cc2)c1=O` (stereo partly drawn) [Compound 239, 1-(sec-butyl)-4-(4-(4-(4-(((2S,4R)-2-(2,4-dichlorophenyl)-2-((2-methyl-4-(trifluoromethyl)-1H-imidazol-1-yl)methyl)-1,3-dioxolan-4-yl)methoxy)phenyl)piperazin-1-yl)phenyl)-1H-1,2,4-triazol-5(4H)-one], in data set [1], the IC50 was found to be 0.441 µM. The “CYP3A4 inhibition in the initial screening” value in data set [2] (1 μM) is on record as “eliminated”. Besides, in data set [2], the “CYP3A4 Inhibition (compared to intracozanole at 1 μm)” value is “No inhibition”.

As for `CCC(C)n1ncn(-c2ccc(N3CCN(c4ccc(OC[C@@H]5CO[C@@](CBr)(c6ccc(Cl)cc6Cl)O5)cc4)CC3)cc2)c1=O` (stereo partly drawn) [Compound 257, 4-(4-(4-(4-(((2S,4R)-2-(bromomethyl)-2-(2,4-dichlorophenyl)-1,3-dioxolan-4-yl)methoxy)phenyl)piperazin-1-yl)phenyl)-1-sec-butyl-1H-1,2,4-triazol-5(4H)-one], in data set [1], the IC50 was determined as 0.512 µM. Moreover, the “CYP3A4 Inhibition (compared to intracozanole at 1 μm)” value in data set [2] is listed as 0.03.

Regarding `CCC(C)n1ncn(-c2ccc(N3CCN(c4ccc(OC[C@@H]5CO[C@@](Cn6c(C)cnc6C)(c6ccc(Cl)cc6Cl)O5)cc4)CC3)cc2)c1=O` (stereo partly drawn) [Compound 241, 1-(sec-butyl)-4-(4-(4-(4-(((2S,4R)-2-(2,4-dichlorophenyl)-2-((2,5-dimethyl-1H-imidazol-1-yl)methyl)-1,3-dioxolan-4-yl)methoxy)phenyl)piperazin-1-yl)phenyl)-1H-1,2,4-triazol-5(4H)-one], in data set [1], the “Proliferation (IC50/IC50 Itra)” value is on record as 3.1 and the IC50 worked out at 0.492 µM. The “CYP3A4 Inhibition (compared to intracozanole at 1 μm)” value in data set [2] is on record as 0.27.

On to `CCC(C)n1ncn(-c2ccc(N3CCN(c4ccc(OC[C@@H]5COC(c6ccc(Cl)cc6Cl)O5)cc4)CC3)cc2)c1=O` (stereo partly drawn) [Compound 262, 1-sec-butyl-4-(4-(4-(4-(((4R)-2-(2,4-dichlorophenyl)-1,3-dioxolan-4-yl)methoxy)phenyl)piperazin-1-yl)phenyl)-1H-1,2,4-triazol-5(4H)-one], for which the IC50 in data set [1] came out at 0.328 µM. In data set [2], the “CYP3A4 Inhibition (compared to intracozanole at 1 μm)” value is “No inhibition”.

`CCC(C)n1ncn(-c2ccc(N3CCN(c4ccc(OC[C@@H]5CO[C@@](Cn6ccnc6C(C)C)(c6ccc(Cl)cc6Cl)O5)cc4)CC3)cc2)c1=O` (stereo partly drawn) [Compound 245, 1-sec-butyl-4-(4-(4-(4-(((2S,4R)-2-(2,4-dichlorophenyl)-2-((2-isopropyl-1H-imidazol-1-yl)methyl)-1,3-dioxolan-4-yl)methoxy)phenyl)piperazin-1-yl)phenyl)-1H-1,2,4-triazol-5(4H)-one]: in data set [1], the “Proliferation (IC50/IC50 Itra)” value worked out at 0.4 and the IC50 stood at 0.068 µM. Moreover, the “CYP3A4 Inhibition (compared to intracozanole at 1 μm)” value in data set [2] stood at 0.07.
